Data published in US20030161893A1, “PTPase inhibitors and methods of using the same” (priority 2001, published 2003).
Values joined by “and” are separate entries in the source; they are usually repeats but may differ in a detail not shown here. Equal entries are not always repeated.

Experiments:
NB4 cells [1] = test: NB4 cell growth (MTT), cell cycle and Annexin V; format: cell-based, human; conditions: 3 days; sodium stibogluconate 250 μg/ml, ATRA 1 μM
Protocol: The NB4 cell line (Lanotte et al., Blood 77, 1080 (1991)) was a gift from Dr. Dan Lindner of the Cleveland Clinic Foundation. […] and U937 cell lines were purchased from American Type Culture Collection (Rockville, Md.). These human […] cell lines were maintained in RPMI 1640 medium supplemented with 10% fetal calf serum (FCS). For cell proliferation assays, cells were cultured at 37° C. in 10% FCS medium containing various amounts of sodium stibogluconate for 6 days. The cell numbers in the cultures were determined by an MTT assay as described previously in Mosmann, J. Imunol. Methods 65, 55 (1983).
The cell cycle was analyzed by flow cytometry after 3 days of culture of NB4 cells in the absence or presence of sodium stibogluconate (250 μg/ml) or ATRA (1 μM). Briefly, the cells were fixed in cold ethanol and incubated for 30 minutes at 4° C. in the dark with a solution of […] propidium iodide, 1 mg/ml RNase and 0.1% NP-40. Analysis was performed immediately after staining using the CELLFIT program (Becton Dickinson, Mountain View, Calif.).
Annexin V staining of exposed membrane phospholipid phosphatidylserine (PS) was done using the Annexin V assay kit (Pharmingen, San Diego, Calif.). Briefly, NB4 cells were cultured in the 10% FCS RPMI 1640 medium in the absence or presence of sodium stibogluconate (250 μg/ml) or ATRA (1 μM) for 3 days. Cells were then washed in PBS twice and stained in binding buffer (10 mM Hepes, pH 7.4; 140 mM NaCl; 2.5 mM CaCl2) containing Annexin V-FITC and propidium iodide for 15 min. The reaction was stopped by adding 10 volumes of binding buffer and analyzed by FACS (Becton Dickinson Facsvantage).

HL-60 cells = test: HL-60 cell differentiation (NBT reduction); format: cell-based, human; conditions: day 6
Protocol: (§1) Differentiation of AML cell lines was assessed by their ability to produce superoxide as measured by reduction of NBT to formazan and by analysis of expression of CD11b surface marker by flow cytometry. For NBT reduction, each cell suspension was mixed with an equal volume of solution containing 1 mg/ml of NBT (Sigma) and 2.5 μg/ml of TPA for 30 minutes at 37° C. After incubation, cells containing the purple formazan deposits and cells devoid of NBT-reducing activity (white cells) in each sample were determined by counting 200 cells under microscope. Data is expressed as a percentage based on the following ratio: purple cells/purple+white cells. For analysis of cell surface antigens, cells were exposed to phycoerythrin (PE)-conjugated murine anti-human CD11b (DAKO Corp., Carpinteria, Calif.). Analysis of fluorescence was performed on a FACScan flow cytometer (Beckton Dickinson, Mountain View, Calif.).

U937 cells = test: U937 cell differentiation (NBT reduction); format: cell-based, human; conditions: day 6
Protocol: as §1

NB4 cells [2] = test: NB4 cell differentiation (NBT reduction, CD11b); format: cell-based, human
Protocol: as §1

WM9 cells = test: Cell proliferation assay (MTT), WM9 melanoma cells; format: cell-based, human
Protocol: For cell proliferation assays, cells were grown in 10% FCS culture medium containing various amounts of IFNs and/or sodium stibogluconate in 96 well plates and cultured at 37° C. for 3 or 6 days as indicated. The numbers of viable cells in proliferation assays were determined by MTT assays as described in Phatak et al., J. Immunol. 167, 3391 (2001).
Dose response curves were generated for each drug alone, and also the combinations. Median effect plots were generated for IFNs alone, sodium stibogluconate alone, and the combination. The combination index (CI) was determined and plotted vs. fraction affected (FA). Data were analyzed in both modes, mutually exclusive and mutually nonexclusive. The interaction between two mutually nonexclusive drugs is described by the Equation CI=D1/D×1+D2/D×2+D1D2/D×1D×2, where D×1 and D×2 are the doses of drug 1 and drug 2 that are required to inhibit growth×%. […] When CI<1, drugs are synergistic, when CI=1, drugs are additive, and when CI>1, drugs are antagonistic.

PRL-1 = target: T1, PRL-1 (Homo sapiens, UniProt Q93096); test: In vitro PTPase assay, recombinant PRL-1; format: biochemical; conditions: 0.1-100 μg/ml
T1 construct: cDNAs of human PRL-1, PRL-2 and PRL-3 coding region were derived by RT-PCR from H9 cells; made in house; host or cells: DH5a bacteria (E. coli)
T1 sequence (Q93096 whole entry): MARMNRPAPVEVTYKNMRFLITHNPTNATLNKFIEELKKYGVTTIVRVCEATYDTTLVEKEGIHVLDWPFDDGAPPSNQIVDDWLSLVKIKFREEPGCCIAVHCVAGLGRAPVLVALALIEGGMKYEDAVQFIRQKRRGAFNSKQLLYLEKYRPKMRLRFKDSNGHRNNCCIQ
Description: (§2) Sodium stibogluconate, suramin, sodium orth ovanadate and GST fusion protein of SHP-1 have been described previously (Pathak et al., J. Imumol. 167, 3391 (2001)). Meglumine antimonate was obtained from Aventis. cDNAs of human PRL-1, PRL-2 and PRL-3 coding region were derived by RT-PCR from H9 cells (Safai, et al., Lancet 1, 1438 (1984)) and inserted in frame into the pGEX vector. cDNA of PRL-1R86 was generated by recombinant DNA technique using PRL-1 cDNA as template following established procedures (Jiao, et al., Mol. Cell. Biol. 16, 6985 (1996)). […]
(§3) In vitro PTPase assays were used to determine the effects of compounds on recombinant PTPases, following established procedures using a synthetic phosphotyrosine peptide or DiFMUP as the substrate (Pathak et al., J. Imumol. 167, 3391 (2001)). […] PTPase activity of individual reactions was measured by adding 100 μL of malachite green solution (UBI) and then quantifying the amounts of free phosphate cleaved by the PTPase from the peptide substrate by spectrometry (OD660 nm). […] Relative PTPase activities were calculated based on the formula: (PTPase activity in the presence of an inhibitory compound/PTPase activity in the absence of the compound)×100%. […]

PRL-3 = target: T2, PRL-3 (Homo sapiens, UniProt O75365); test: In vitro PTPase assay, recombinant PRL-3; format: biochemical; conditions: 0.1-100 μg/ml
T2 construct: cDNAs of human PRL-1, PRL-2 and PRL-3 coding region were derived by RT-PCR from H9 cells; made in house; host or cells: DH5a bacteria (E. coli)
T2 sequence (O75365 whole entry): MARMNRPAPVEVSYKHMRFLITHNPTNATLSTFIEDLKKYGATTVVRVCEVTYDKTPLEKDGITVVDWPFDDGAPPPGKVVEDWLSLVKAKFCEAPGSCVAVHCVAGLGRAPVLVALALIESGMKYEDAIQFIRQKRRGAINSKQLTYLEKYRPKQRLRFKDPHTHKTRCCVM
Description: Sodium stibogluconate, suramin, sodium orth ovanadate and GST fusion protein of SHP-1 have been described previously (Pathak et al., J. Imumol. 167, 3391 (2001)). Meglumine antimonate was obtained from Aventis. cDNAs of human PRL-1, PRL-2 and PRL-3 coding region were derived by RT-PCR from H9 cells (Safai, et al., Lancet 1, 1438 (1984)) and inserted in frame into the pGEX vector. cDNA of PRL-1R86 was generated by recombinant DNA technique using PRL-1 cDNA as template following established procedures (Jiao, et al., Mol. Cell. Biol. 16, 6985 (1996)). GST fusion proteins of the PRL phosphatases were prepared from DH5a bacteria transformed with the pGEX fusion protein constructs as described previously (Yi, et al., Mol. Cell. Biol. 12, 836 (1992)). cDNAs encoding the PRLs tagged at the N-termini with the Flag epitope (Castrucci, et al., J. Virol. 66, 4647 (1992)) were generated via recombinant DNA technique, sequenced to confirm their identities and cloned into the pBabepuro vector (Yang, et al., Blood 91, 3746 (1998)). Anti-Flag monoclonal antibody (M2, Sigma) was purchased from a commercial source. A synthetic phosphotyrosine peptide (Arg-Arg-Leu-Ile-Glu-Asp-Ala-Gle-Tyr-Ala-Ala-Arg-Gly (SEQ ID NO: 3), wherein the tyrosine is phosphorylated; UBI) and DiFMUP (6, 8-difluoro-4-methylumbelliferyl phosphate, Molecular Probes) were purchased as substrates for PTPase assays.
In vitro PTPase assays were used to determine the effects of compounds on recombinant PTPases, following established procedures using a synthetic phosphotyrosine peptide or DiFMUP as the substrate (Pathak et al., J. Imumol. 167, 3391 (2001)). Briefly, individual PTPases (0.1 μg/reaction) in 50 μL of PTPase buffer (50 mM Tris, pH 7.4) were incubated at 22° C. for 10 minutes or as indicated in the absence or presence of inhibitory compounds. Substrates (0.2 mM phosphotyrosine peptide) were then added and allowed to react at 22° C. for 18 hrs. PTPase activity of individual reactions was measured by adding 100 μL of malachite green solution (UBI) and then quantifying the amounts of free phosphate cleaved by the PTPase from the peptide substrate by spectrometry (OD660 nm). PTPase assays using DiFMUP as a substrate were conducted following a previously described procedure (Matter, et al., Biochem. Biophys. Res. Comm. 283, 1061 (2001)). Relative PTPase activities were calculated based on the formula: (PTPase activity in the presence of an inhibitory compound/PTPase activity in the absence of the compound)×100%. To assess the reversibility of PTPase inhibition, GST fusion proteins of the PTPases bound on glutathione beads (Pharmacia) were pre-incubated with cold Tris buffer (50 mM Tris, pH 7.0) or Tris buffer containing the inhibitor at 4° C. for 30 minutes. The beads were then washed three times in cold Tris buffer or not washed prior to subjecting to in vitro PTPase assays.

MKP1 = target: T3, MKP1 (Homo sapiens, UniProt P28562); test: In vitro PTPase assay, GST/MKP1 fusion protein; format: biochemical
T3 construct: a pGEX construct containing the coding region of MKP1 cDNA derived by RT-PCR; made in house; host or cells: DH5a bacteria (E. coli)
T3 sequence (P28562 1-367): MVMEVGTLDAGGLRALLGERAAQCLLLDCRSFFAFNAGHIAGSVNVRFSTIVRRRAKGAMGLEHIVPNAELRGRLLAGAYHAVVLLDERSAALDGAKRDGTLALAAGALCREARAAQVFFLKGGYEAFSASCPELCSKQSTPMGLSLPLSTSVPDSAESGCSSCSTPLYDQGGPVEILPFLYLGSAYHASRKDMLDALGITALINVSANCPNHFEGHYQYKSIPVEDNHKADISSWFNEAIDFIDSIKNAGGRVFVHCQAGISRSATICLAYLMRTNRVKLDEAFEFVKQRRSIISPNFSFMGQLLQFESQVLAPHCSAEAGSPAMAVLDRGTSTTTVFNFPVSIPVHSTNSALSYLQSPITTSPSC

PRL-2 = target: T4, PRL-2 (Homo sapiens, UniProt Q12974); test: In vitro PTPase assay, recombinant PRL-2; format: biochemical
T4 construct: cDNAs of human PRL-1, PRL-2 and PRL-3 coding region were derived by RT-PCR from H9 cells; made in house; host or cells: DH5a bacteria (E. coli)
T4 sequence (Q12974 whole entry): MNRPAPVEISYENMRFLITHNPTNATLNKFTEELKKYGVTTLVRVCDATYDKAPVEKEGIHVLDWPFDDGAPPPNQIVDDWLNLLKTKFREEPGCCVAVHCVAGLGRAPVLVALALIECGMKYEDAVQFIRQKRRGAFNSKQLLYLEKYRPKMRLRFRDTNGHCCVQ
Description: as §2, §3

GSTm8 = test: In vitro PTPase assay, GSTm8; format: biochemical; conditions: 3-4 μg/ml or 10-100 μg/ml
SHP-1 = target: T5, SHP-1 (Mus musculus, UniProt P29351); test: In vitro PTPase assay, GST/SHP-1 fusion protein; format: biochemical; conditions: 3-4 μg/ml or 10-100 μg/ml
T5 construct: made in house
T5 sequence (P29351 whole entry, the tested form may be a part): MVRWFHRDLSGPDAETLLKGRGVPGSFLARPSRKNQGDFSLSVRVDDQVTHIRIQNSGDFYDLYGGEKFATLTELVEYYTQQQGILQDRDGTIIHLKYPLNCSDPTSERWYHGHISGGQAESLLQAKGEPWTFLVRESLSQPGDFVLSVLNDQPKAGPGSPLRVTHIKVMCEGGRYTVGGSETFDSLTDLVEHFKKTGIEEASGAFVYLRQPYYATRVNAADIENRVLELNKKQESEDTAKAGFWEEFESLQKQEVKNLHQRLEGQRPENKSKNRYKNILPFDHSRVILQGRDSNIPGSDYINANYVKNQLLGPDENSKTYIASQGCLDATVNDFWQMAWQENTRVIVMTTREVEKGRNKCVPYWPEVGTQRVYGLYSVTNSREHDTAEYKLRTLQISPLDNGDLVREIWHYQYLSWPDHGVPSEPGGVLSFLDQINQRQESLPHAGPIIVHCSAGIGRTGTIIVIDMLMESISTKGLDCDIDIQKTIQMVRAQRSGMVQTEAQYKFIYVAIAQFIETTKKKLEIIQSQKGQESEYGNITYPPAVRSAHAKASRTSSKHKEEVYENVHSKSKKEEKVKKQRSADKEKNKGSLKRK
Protocol: In vitro PTPase activities were measured using the commercial protein tyrosine phosphatase assay kit (Upstate Biotechnology, Inc. (“UBI”)) following established procedure known to one of skill in the art. […] 100 μl of Malachite Green solution was added and incubated for 5 minutes, and the absorbance at 660 nm was measured after 5 minutes.
The beads were then either subjected to in vitro PTPase assays or washed 3 times in Tris buffer then subjected to in vitro PTPase assays.
Briefly, individual PTPases (0.1 μg/reaction) in 50 μL of PTPase buffer (50 mM Tris, pH 7.4) were incubated at 22° C. for 10 minutes or as indicated in the absence or presence of inhibitory compounds. […] […] […] Relative PTPase activities were calculated based on the formula: (PTPase activity in the presence of an inhibitory compound/PTPase activity in the absence of the compound)×100%. To assess the reversibility of PTPase inhibition, GST fusion proteins of the PTPases bound on glutathione beads (Pharmacia) were pre-incubated with cold Tris buffer (50 mM Tris, pH 7.0) or Tris buffer containing the inhibitor at 4° C. for 30 minutes. The beads were then washed three times in cold Tris buffer or not washed prior to subjecting to in vitro PTPase assays.

[3] = sodium stibogluconate 400 μg/ml, GM-CSF 25 ng/ml, ATRA

## CC1=C(/C=C/C(C)=C/C=C/C(C)=C/C(=O)O)C(C)(C)CCC1 [ATRA, All-trans-retinoic acid]
NB4 cells [1]
  cell cycle of NB4 cells: arrested at GI phase
HL-60 cells; [3]
  NBT-positive (differentiated) HL-60 cells: 90%
U937 cells; [3]
  NBT-positive (differentiated) U937 cells: 72% and 73%

## GM-CSF: recombinant human granulocyte/macrophage colony stimulating factor
NB4 cells [2]; GM-CSF alone
  effect on NB4 cell differentiation: no detectable effect
NB4 cells [2]; GM-CSF with sodium stibogluconate
  augmentation of sodium stibogluconate-induced NB4 differentiation: failed to augment
HL-60 cells; GM-CSF 25 ng/ml alone
  maximal increase of NBT-positive HL-60 cells: 8-10%
U937 cells; GM-CSF 25 ng/ml alone
  maximal increase of NBT-positive U937 cells: 8-10%

## N=C(N)c1ccc(OCCCCCOc2ccc(C(=N)N)cc2)cc1 [pentamidine]
WM9 cells; pentamidine 2.5-5 μg/ml, 6 days
  growth inhibition of WM9 cells, single agent: 86-97%
WM9 cells; pentamidine, most obviously at 0.625-1.25 μg/ml
  effect on IFN-alpha-induced growth inhibition of WM9: augmented IFN-alpha-induced growth inhibition
PRL-1
  retained PRL-1 PTPase activity: 70-80%
PRL-3
  remaining PRL-3 PTPase activity: 20-30%
MKP1
  inhibition of MKP1: substantial inhibition
PRL-2
  effectiveness against PRL-2: not effective
GSTm8
  inhibitory activity against GSTm8: no obvious inhibitory activity
SHP-1
  inhibitory activity against SHP-1: no obvious inhibitory activity

## CC(=O)N1CCN(c2ccc(OCC3COC(Cn4ccnc4)(c4ccc(Cl)cc4Cl)O3)cc2)CC1 (centres unmarked) [ketoconazole]
WM9 cells; Homo sapiens, WM9, 144 h, read-out: growth inhibition of WM9 cells, single agent
  inhibition at 40 µg/mL: 67%
WM9 cells; ketoconazole 40 μg/ml
  effect on IFN-alpha activity in WM9: minor augmenting effect
WM9 cells; ketoconazole 0.625-20 μg/ml, 6 days
  activity against WM9 cells, single agent or with IFN-alpha: no apparent activity
PRL-1
  retained PRL-1 PTPase activity: 60-70%
PRL-3
  remaining PRL-3 PTPase activity: 25-40%
PRL-2
  effectiveness against PRL-2: not effective
GSTm8
  inhibitory activity against GSTm8: no obvious inhibitory activity
SHP-1
  inhibitory activity against SHP-1: no obvious inhibitory activity
